Measured values published in patent US9539252B2, “Piperazine-substituted benzothiophene derivatives as antipsychotic agents” (OTSUKA PHARMACEUTICAL CO., LTD., priority 2011, dated 2017).

assay: Solubility in oil (sesame oil, benzyl benzoate), visual observation; details: benzyl benzoate, oil or lipid, thermodynamic from solid

solubility, > 100 mg/mL:
CN1CCC(C(=O)OCN2C(=O)CCc3ccc(OCCCCN4CCN(c5cccc6sccc56)CC4)cc32)CC1 [Example 102, 1-methylpiperidine-4-carboxylic acid 7-[4-(4-benzo[b]thiophen-4-ylpiperazin-1-yl)butoxy]-2-oxo-3,4-dihydro-2H-quinolin-1-ylmethyl ester]
CCCCCCCCCCCCCCOC(=O)OCn1c(=O)ccc2ccc(OCCCCN3CCN(c4cccc5sccc45)CC3)cc21 [Example 179, carbonic acid 7-[4-(4-benzo[b]thiophen-4-ylpiperazin-1-yl)butoxy]-2-oxo-2H-quinolin-1-ylmethyl ester tetradecyl ester]
O=C(OCn1c(=O)ccc2ccc(OCCCCN3CCN(c4cccc5sccc45)CC3)cc21)OC1CCCCC1 [Example 146, carbonic acid 7-[4-(4-benzo[b]thiophen-4-ylpiperazin-1-yl)butoxy]-2-oxo-2H-quinolin-1-ylmethyl ester cyclohexyl ester]
CC(C)CCC(=O)OCN1C(=O)CCc2ccc(OCCCCN3CCN(c4cccc5sccc45)CC3)cc21 [Example 105, 4-methylpentanoic acid 7-[4-(4-benzo[b]thiophen-4-ylpiperazin-1-yl)butoxy]-2-oxo-3,4-dihydro-2H-quinolin-1-ylmethyl ester]
O=C(NCCC(F)(F)F)OCN1C(=O)CCc2ccc(OCCCCN3CCN(c4cccc5sccc45)CC3)cc21 [Example 93, N-(3,3,3-trifluoropropyl)carbamic acid 7-[4-(4-benzo[b]thiophen-4-ylpiperazin-1-yl)butoxy]-2-oxo-3,4-dihydro-2H-quinolin-1-ylmethyl ester]
COC(=O)OCN1C(=O)CCc2ccc(OCCCCN3CCN(c4cccc5sccc45)CC3)cc21 [Example 72, carbonic acid 7-[4-(4-benzo[b]thiophen-4-ylpiperazin-1-yl)butoxy]-2-oxo-3,4-dihydro-2H-quinolin-1-ylmethyl ester methyl ester]
CCCCOC(=O)OCn1c(=O)ccc2ccc(OCCCCN3CCN(c4cccc5sccc45)CC3)cc21 [Example 168, carbonic acid 7-[4-(4-benzo[b]thiophen-4-ylpiperazin-1-yl)butoxy]-2-oxo-2H-quinolin-1-ylmethyl ester butyl ester]
CCCCCCCCCCOC(=O)OCN1C(=O)CCc2ccc(OCCCCN3CCN(c4cccc5sccc45)CC3)cc21 [Example 142, carbonic acid 7-[4-(4-benzo[b]thiophen-4-ylpiperazin-1-yl)butoxy]-2-oxo-3,4-dihydro-2H-quinolin-1-ylmethyl ester decyl ester]
CCCCCCCCCCCCCCCCCCCC(=O)OCn1c(=O)ccc2ccc(OCCCCN3CCN(c4cccc5sccc45)CC3)cc21 [Example 41, icosanoic acid 7-[4-(4-benzo[b]thiophen-4-ylpiperazin-1-yl)butoxy]-2-oxo-2H-quinolin-1-ylmethyl ester]
O=C(OCn1c(=O)ccc2ccc(OCCCCN3CCN(c4cccc5sccc45)CC3)cc21)c1ccc2occc2c1 [Example 137, benzofuran-5-carboxylic acid 7-[4-(4-benzo[b]thiophen-4-ylpiperazin-1-yl)butoxy]-2-oxo-2H-quinolin-1-ylmethyl ester]
CCCCCCCC(=O)OCn1c(=O)ccc2ccc(OCCCCN3CCN(c4cccc5sccc45)CC3)cc21 [Example 30, octanoic acid 7-[4-(4-benzo[b]thiophen-4-ylpiperazin-1-yl)butoxy]-2-oxo-2H-quinolin-1-ylmethyl ester]
CCCCCCCCCCCCCCCC(=O)OCn1c(=O)ccc2ccc(OCCCCN3CCN(c4cccc5sccc45)CC3)cc21 [Example 42, hexadecanoic acid 7-[4-(4-benzo[b]thiophen-4-ylpiperazin-1-yl)butoxy]-2-oxo-2H-quinolin-1-ylmethyl ester]
COC(=O)CN(C)C(=O)OCN1C(=O)CCc2ccc(OCCCCN3CCN(c4cccc5sccc45)CC3)cc21 [Example 90, ({7-[4-(4-benzo[b]thiophen-4-ylpiperazin-1-yl)butoxy]-2-oxo-3,4-dihydro-2H-quinolin-1-ylmethoxycarbonyl}methylamino)acetic acid methyl ester]
CCCCCCCCCCCCCCCCC(=O)OCN1C(=O)CCc2ccc(OCCCCN3CCN(c4cccc5sccc45)CC3)cc21 [Example 95, heptadecanoic acid 7-[4-(4-benzo[b]thiophen-4-ylpiperazin-1-yl)butoxy]-2-oxo-3,4-dihydro-2H-quinolin-1-ylmethyl ester]
CCCCCCCCCCOC(=O)OCn1c(=O)ccc2ccc(OCCCCN3CCN(c4cccc5sccc45)CC3)cc21 [Example 135, carbonic acid 7-[4-(4-benzo[b]thiophen-4-ylpiperazin-1-yl)butoxy]-2-oxo-2H-quinolin-1-ylmethyl ester decyl ester]
CCCCCC(CCCCC)C(=O)OCN1C(=O)CCc2ccc(OCCCCN3CCN(c4cccc5sccc45)CC3)cc21 [Example 40, 2-pentylheptanoic acid 7-[4-(4-benzo[b]thiophen-4-ylpiperazin-1-yl)butoxy]-2-oxo-3,4-dihydro-2H-quinolin-1-ylmethyl ester]
CCOC(=O)OCN1C(=O)CCc2ccc(OCCCCN3CCN(c4cccc5sccc45)CC3)cc21 [Example 49, carbonic acid 7-[4-(4-benzo[b]thiophen-4-ylpiperazin-1-yl)butoxy]-2-oxo-3,4-dihydro-2H-quinolin-1-ylmethyl ester ethyl ester]
COCCNC(=O)OCN1C(=O)CCc2ccc(OCCCCN3CCN(c4cccc5sccc45)CC3)cc21 [Example 97, N-(2-methoxyethyl)carbamic acid 7-[4-(4-benzo[b]thiophen-4-ylpiperazin-1-yl)butoxy]-2-oxo-3,4-dihydro-2H-quinolin-1-ylmethyl ester]
CCCCCCCCCCCCCC(=O)OCn1c(=O)ccc2ccc(OCCCCN3CCN(c4cccc5sccc45)CC3)cc21 [Example 65, tetradecanoic acid 7-[4-(4-benzo[b]thiophen-4-ylpiperazin-1-yl)butoxy]-2-oxo-2H-quinolin-1-ylmethyl ester]
CCC(C)C(=O)OCn1c(=O)ccc2ccc(OCCCCN3CCN(c4cccc5sccc45)CC3)cc21 (centres unmarked) [Example 87, 2-methylbutyric acid 7-[4-(4-benzo[b]thiophen-4-ylpiperazin-1-yl)butoxy]-2-oxo-2H-quinolin-1-ylmethyl ester]
O=C(NCc1ccccc1)OCn1c(=O)ccc2ccc(OCCCCN3CCN(c4cccc5sccc45)CC3)cc21 [Example 62, N-benzylcarbamic acid 7-[4-(4-benzo[b]thiophen-4-ylpiperazin-1-yl)butoxy]-2-oxo-2H-quinolin-1-ylmethyl ester]
O=C(OCn1c(=O)ccc2ccc(OCCCCN3CCN(c4cccc5sccc45)CC3)cc21)C1CCCC1 [Example 37, cyclopentanecarboxylic acid 7-[4-(4-benzo[b]thiophen-4-ylpiperazin-1-yl)butoxy]-2-oxo-2H-quinolin-1-ylmethyl ester]
CCNC(=O)OCN1C(=O)CCc2ccc(OCCCCN3CCN(c4cccc5sccc45)CC3)cc21 [Example 51, N-ethylcarbamic acid 7-[4-(4-benzo[b]thiophen-4-ylpiperazin-1-yl)butoxy]-2-oxo-3,4-dihydro-2H-quinolin-1-ylmethyl ester]
CC(C)(C)C(=O)OCN1C(=O)CCc2ccc(OCCCCN3CCN(c4cccc5sccc45)CC3)cc21 [Example 15, 2,2-dimethylpropionic acid 7-[4-(4-benzo[b]thiophen-4-ylpiperazin-1-yl)butoxy]-2-oxo-3,4-dihydro-2H-quinolin-1-ylmethyl ester]
O=C(OCn1c(=O)ccc2ccc(OCCCCN3CCN(c4cccc5sccc45)CC3)cc21)N1CCCCC1 [Example 10, piperidine-1-carboxylic acid 7-[4-(4-benzo[b]thiophen-4-ylpiperazin-1-yl)butoxy]-2-oxo-2H-quinolin-1-ylmethyl ester]
CCCCCCCCOC(=O)OCn1c(=O)ccc2ccc(OCCCCN3CCN(c4cccc5sccc45)CC3)cc21 [Example 384, (7-(4-(4-(benzo[b]thiophen-4-yl)piperazin-1-yl)butoxy)-2-oxoquinolin-1(2H)-yl)methyl octyl carbonate]
CC(C)(C)OC(=O)CC(=O)OCn1c(=O)ccc2ccc(OCCCCN3CCN(c4cccc5sccc45)CC3)cc21 [Example 148, malonic acid 7-[4-(4-benzo[b]thiophen-4-ylpiperazin-1-yl)butoxy]-2-oxo-2H-quinolin-1-ylmethyl ester tert-butyl ester]
CCCCCC(C)C(=O)OCN1C(=O)CCc2ccc(OCCCCN3CCN(c4cccc5sccc45)CC3)cc21 (centres unmarked) [Example 92, 2-methylheptanoic acid 7-[4-(4-benzo[b]thiophen-4-ylpiperazin-1-yl)butoxy]-2-oxo-3,4-dihydro-2H-quinolin-1-ylmethyl ester]
O=C(OCn1c(=O)ccc2ccc(OCCCCN3CCN(c4cccc5sccc45)CC3)cc21)C1CCC1 [Example 136, cyclobutanecarboxylic acid 7-[4-(4-benzo[b]thiophen-4-ylpiperazin-1-yl)butoxy]-2-oxo-2H-quinolin-1-ylmethyl ester]
CCCCCCCCCCCCCCC(=O)OCN1C(=O)CCc2ccc(OCCCCN3CCN(c4cccc5sccc45)CC3)cc21 [Example 91, pentadecanoic acid 7-[4-(4-benzo[b]thiophen-4-ylpiperazin-1-yl)butoxy]-2-oxo-3,4-dihydro-2H-quinolin-1-ylmethyl ester]
CN(Cc1ccccc1)C(=O)OCn1c(=O)ccc2ccc(OCCCCN3CCN(c4cccc5sccc45)CC3)cc21 [Example 111, N-benzyl-N-methylcarbamic acid 7-[4-(4-benzo[b]thiophen-4-ylpiperazin-1-yl)butoxy]-2-oxo-2H-quinolin-1-ylmethyl ester]

same assay, conditions: sesame oil, oil or lipid, thermodynamic from solid

solubility, > 100 mg/mL:
CCCCCCCCCCCCCCOC(=O)OCn1c(=O)ccc2ccc(OCCCCN3CCN(c4cccc5sccc45)CC3)cc21 [Example 179, carbonic acid 7-[4-(4-benzo[b]thiophen-4-ylpiperazin-1-yl)butoxy]-2-oxo-2H-quinolin-1-ylmethyl ester tetradecyl ester]
CCCCCCCCCCOC(=O)OCN1C(=O)CCc2ccc(OCCCCN3CCN(c4cccc5sccc45)CC3)cc21 [Example 142, carbonic acid 7-[4-(4-benzo[b]thiophen-4-ylpiperazin-1-yl)butoxy]-2-oxo-3,4-dihydro-2H-quinolin-1-ylmethyl ester decyl ester]
CCCCCCCCCCOC(=O)OCn1c(=O)ccc2ccc(OCCCCN3CCN(c4cccc5sccc45)CC3)cc21 [Example 135, carbonic acid 7-[4-(4-benzo[b]thiophen-4-ylpiperazin-1-yl)butoxy]-2-oxo-2H-quinolin-1-ylmethyl ester decyl ester]
CCCCCCCCOC(=O)OCn1c(=O)ccc2ccc(OCCCCN3CCN(c4cccc5sccc45)CC3)cc21 [Example 384, (7-(4-(4-(benzo[b]thiophen-4-yl)piperazin-1-yl)butoxy)-2-oxoquinolin-1(2H)-yl)methyl octyl carbonate]
